Measurements reported in patent US10144715B2, “Piperazine derivatives as liver X receptor modulators” (priority 2014, dated 2018).
Like-named read-outs stand apart in the source and are kept apart here.

Experiments:
[1] = molecular target: Gal4 DNA binding domain fused to the LBD of LXRα in HEK293 cells (Homo sapiens (Human), UniProt Q13133); experiment: LXR luciferase transcriptional reporter gene assay, agonist mode, LXRα; assay type: cell-based; details: for EC50: read-out: Cell LXRα EC50
[2] = molecular target: LXR α LBD protein (Homo sapiens (Human), UniProt Q13133); experiment: LXR α radioligand binding assay (SPA, competition with [3H]TO901317); details: read-out: LXRα Binding Ki
Chain of LXR α LBD protein (Q13133 209-447): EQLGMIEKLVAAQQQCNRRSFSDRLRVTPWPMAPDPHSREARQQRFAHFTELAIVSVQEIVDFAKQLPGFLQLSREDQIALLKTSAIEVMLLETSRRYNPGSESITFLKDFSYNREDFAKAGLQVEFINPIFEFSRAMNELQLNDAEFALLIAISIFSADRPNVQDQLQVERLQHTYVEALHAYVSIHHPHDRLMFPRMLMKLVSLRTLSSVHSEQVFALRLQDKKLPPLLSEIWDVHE

[3] = molecular target: Gal4 DNA binding domain fused to the LBD of LXRβ in HEK293 cells (Homo sapiens (Human), UniProt P55055); experiment: cell-based
Chain of Gal4 DNA binding domain fused to the LBD of LXRβ in HEK293 cells (P55055 222-460 limits assumed): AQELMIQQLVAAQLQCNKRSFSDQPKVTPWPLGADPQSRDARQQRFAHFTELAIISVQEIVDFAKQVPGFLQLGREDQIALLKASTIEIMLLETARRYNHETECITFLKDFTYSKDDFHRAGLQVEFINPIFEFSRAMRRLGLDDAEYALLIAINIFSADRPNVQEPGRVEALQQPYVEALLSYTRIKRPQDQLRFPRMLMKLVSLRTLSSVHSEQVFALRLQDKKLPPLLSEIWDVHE

[4] = Biological Test Example 2, agonist mode
[5] = Biological Test Example 2, agonist mode, read-out: Cell LXRβ EC50

Chain of Gal4 DNA binding domain fused to the LBD of LXRα in HEK293 cells (Q13133 209-447): as the sequence (Q13133 209-447) above

Structure (SMILES) | Cell LXRα efficacy [1] | EC50 [1] | Ki [2] | EC50 ([1]; agonist mode) | further results
CC(C)[C@@H]1CN(c2cccc(S(C)(=O)=O)c2)CCN1C[C@H]1CC[C@@H](C(F)(F)F)CC1 (single isomer, unassigned) [48-9] | 3201 (94) % | 3.2 µM | 0.49 µM |  | 
CC(C)[C@@H]1CN(c2cccc(S(C)(=O)=O)c2)CCN1C[C@H]1CC[C@H](C(F)(F)F)CC1 (single isomer, unassigned) [48-10] | 9657 (80) % | 9.66 µM | 1.68 µM |  | 
CC(C)[C@H]1CN(c2cccc(S(C)(=O)=O)c2)CCN1C[C@H]1CC[C@H](C(F)(F)F)CC1 (single isomer, unassigned) [48-12] | 363 (66) % | 0.363 µM | 0.245 µM |  | 
CC1(C)CCC(CN2CCN(c3ccc(CO)c(S(C)(=O)=O)c3)C[C@@H]2c2ccccc2)CC1 (single isomer, unassigned) [48-26] | 364 (73) % |  | 0.039 µM | 0.364 µM | 
CC1(C)CCC(CN2CCN(c3ccc(CO)c(S(C)(=O)=O)c3)C[C@H]2c2ccccc2)CC1 (single isomer, unassigned) [48-27] | 18123 (60) % |  | 2.86 µM | 18.1 µM | 
CS(=O)(=O)c1cccc(N2CCN(C[C@H]3CC[C@H](C(F)(F)F)CC3)[C@H](c3ccccc3Cl)C2)c1 (single isomer, unassigned) [48-47] |  | > 20 µM |  |  | Cell LXRβ efficacy [3, 4]: 26%; EC50 [3, 5]: 1.39 µM
CC(C)[C@H]1CN(c2ccc(CO)c(S(C)(=O)=O)c2)CCN1C[C@H]1CCN(CC(F)(F)F)C1 (single isomer, unassigned) [48-58] | 3252 (56) % |  |  |  | EC50 [1, 4]: 3.25 µM; Ki ([2]; Biological Test Example 1): > 3.33 µM
CC(C)[C@H]1CN(c2ccc(CO)c(S(C)(=O)=O)c2)CCN1C[C@@H]1CCN(CC(F)(F)F)C1 (single isomer, unassigned) [48-59] | 1189 (54) % |  |  |  | EC50 [1, 4]: 1.19 µM; Ki ([2]; Biological Test Example 1): 3.16 µM
CS(=O)(=O)c1cccc(N2CCN(C[C@H]3C[C@@H]4[C@H](C3)C4(F)F)[C@H](c3ccccc3)C2)c1 (single isomer, unassigned) [48-65] |  | > 20 µM |  |  | Cell LXRβ efficacy [3, 4]: 48%; EC50 [3, 5]: 7.05 µM
CCOC(=O)c1csc(-c2ccc(N3CCN(C(=O)OC(C)(C)C)[C@H](C(C)C)C3)cc2S(C)(=O)=O)n1 [2-4, ethyl (R)-2-(4-(4-(tert-butoxycarbonyl)-3-isopropylpiperazin-1-yl)-2-(methylsulfonyl)phenyl)thiazole-4-carboxylate] | 4227 (62) % |  | 1.07 µM | 4.23 µM | 
CC(C)[C@@H]1CN(c2ccc(CO)c(S(C)(=O)=O)c2)CCN1c1ccnc(C(N)=O)c1 [4-6, (R)-4-(4-(4-(hydroxymethyl)-3-(methylsulfonyl)phenyl)-2-isopropylpiperazin-1-yl)picolinamide] | 9385 (44) % |  | > 3.33 µM | 9.39 µM | 
CC(F)(F)[C@H]1CN(c2cccc(S(C)(=O)=O)c2)CCN1c1nccc(C(F)(F)F)n1 [7-25, (R)-2-(2-(1,1-difluoroethyl)-4-(3-(methylsulfonyl)phenyl)piperazin-1-yl)-4-(trifluoromethyl)pyrimidine] |  |  | 4.82 µM | > 20 µM | 
CC(F)(F)[C@@H]1CN(c2cccc(S(C)(=O)=O)c2)CCN1c1nccc(C(F)(F)F)n1 [7-26, (S)-2-(2-(1,1-difluoroethyl)-4-(3-(methylsulfonyl)phenyl)piperazin-1-yl)-4-(trifluoromethyl)pyrimidine] | 1211 (37) % |  | 0.193 µM | 1.21 µM | 
CS(=O)(=O)c1cccc(N2CCN(c3nccc(C(F)(F)F)n3)[C@@H](C(F)(F)F)C2)c1 [7-27, (R)-2-(4-(3-(methylsulfonyl)phenyl)-2-(trifluoromethyl)piperazin-1-yl)-4-(trifluoromethyl)pyrimidine] |  | > 20 µM | 7.19 µM |  | 
CS(=O)(=O)c1cccc(N2CCN(c3nccc(C(F)(F)F)n3)[C@H](C(F)(F)F)C2)c1 [7-28, (S)-2-(4-(3-(methylsulfonyl)phenyl)-2-(trifluoromethyl)piperazin-1-yl)-4-(trifluoromethyl)pyrimidine] | 2235 (40) % | 2.24 µM | 0.422 µM |  | 
CC(C)[C@@H]1CN(c2cccc(S(C)(=O)=O)c2)CCN1c1ccc(C(F)F)cn1 [7-34, (R)-1-(5-(difluoromethyl)pyridin-2-yl)-2-isopropyl-4-(3-(methylsulfonyl)phenyl)piperazine] | 13999 (55) % |  | 3.28 µM | 14 µM | 
CC(C)[C@@H]1CN(c2ccc(F)c(S(C)(=O)=O)c2)CCN1c1ncc(C(F)(F)F)cc1Cl [7-41, (R)-1-(3-chloro-5-(trifluoromethyl)pyridin-2-yl)-4-(4-fluoro-3-(methylsulfonyl)phenyl)-2-isopropylpiperazine] | 949 (84) % |  | 0.072 µM | 0.949 µM | 
CC(C)[C@@H]1CN(c2ccc(F)c(S(C)(=O)=O)c2)CCN1c1ncc(C(F)(F)F)cc1[N+](=O)[O-] [7-42, (R)-4-(4-fluoro-3-(methylsulfonyl)phenyl)-2-isopropyl-1-(3-nitro-5-(trifluoromethyl)pyridin-2-yl)piperazine] | 3110 (46) % |  | 0.623 µM | 3.11 µM | 
COC(=O)c1ccc(N2CCN(c3ccc(F)c(S(C)(=O)=O)c3)C[C@H]2C(C)C)nc1C(F)(F)F [7-43, methyl (R)-6-(4-(4-fluoro-3-(methylsulfonyl)phenyl)-2-isopropylpiperazin-1-yl)-2-(trifluoromethyl)nicotinate] | 649 (77) % |  | 0.13 µM | 0.649 µM | 
Cc1ccc(N2CCN(c3cccc(S(C)(=O)=O)c3)C[C@H]2C(C)C)nn1 [7-46, (R)-3-(2-isopropyl-4-(3-(methylsulfonyl)phenyl)piperazin-1-yl)-6-methylpyridazine] | 14681 (71) % |  | 13.6 µM | 14.7 µM | 
CC(C)[C@@H]1CN(c2cccc(S(C)(=O)=O)c2)CCN1c1ccc(C2CC2)nn1 [7-47, (R)-3-cyclopropyl-6-(2-isopropyl-4-(3-(methylsulfonyl)phenyl)piperazin-1-yl)pyridazine] | 4921 (84) % | 4.92 µM | 3.1 µM |  | 
CC(C)[C@@H]1CN(c2cccc(S(C)(=O)=O)c2)CCN1c1ccc(C(F)(F)F)nn1 [7-48, (R)-3-(2-isopropyl-4-(3-(methylsulfonyl)phenyl)piperazin-1-yl)-6-(trifluoromethyl)pyridazine] | 2110 (98) % | 2.11 µM | 0.877 µM |  | 
CC(C)[C@@H]1CN(c2ccc(F)c(S(C)(=O)=O)c2)CCN1c1ccc(C(F)(F)F)nn1 [7-49, (R)-3-(4-(4-fluoro-3-(methylsulfonyl)phenyl)-2-isopropylpiperazin-1-yl)-6-(trifluoromethyl)pyridazine] | 1335 (112) % |  | 0.508 µM | 1.34 µM | 
CCOC(=O)c1cnc(N2CCN(c3ccc(F)c(S(C)(=O)=O)c3)C[C@H]2CC(C)C)nc1C(F)(F)F [9-7, ethyl (R)-2-(4-(4-fluoro-3-(methylsulfonyl)phenyl)-2-isobutylpiperazin-1-yl)-4-(trifluoromethyl)pyrimidine-5-carboxylate] | 960 (34) % |  | 0.033 µM | 0.96 µM | 
CCOC(=O)c1cnc(N2CCN(c3ccc(COC(C)=O)c(S(C)(=O)=O)c3)C[C@H]2C(C)C)nc1C(F)(F)F [9-10, ethyl (R)-2-(4-(4-(acetoxymethyl)-3-(methylsulfonyl)phenyl)-2-isopropylpiperazin-1-yl)-4-(trifluoromethyl)pyrimidine-5-carboxylate] | 243 (59) % |  | 0.096 µM | 0.243 µM | 
CCOC(=O)c1cnc(N2CCN(c3ccc(-c4nc(C)no4)c(S(C)(=O)=O)c3)C[C@H]2C(C)C)nc1C(F)(F)F [9-12, ethyl (R)-2-(2-isopropyl-4-(4-(3-methyl-1,2,4-oxadiazol-5-yl)-3-(methylsulfonyl)phenyl)piperazin-1-yl)-4-(trifluoromethyl)pyrimidine-5-carboxylate] | 15144 (26) % |  | 2.29 µM | 15.1 µM | 
CC(C)[C@@H]1CN(c2ccc(F)c(S(C)(=O)=O)c2)CCN1c1ncc(CN)c(C(F)(F)F)n1 [15-2, (R)-(2-(4-(4-fluoro-3-(methylsulfonyl)phenyl)-2-isopropylpiperazin-1-yl)-4-(trifluoromethyl)pyrimidin-5-yl)methanamine] |  |  |  | > 20 µM | Cell LXRβ efficacy [3]: 3001 (13) %; EC50 [3]: 3 µM
CS(=O)(=O)c1cc(N2CCN(c3ncc(C(=O)O)c(C(F)(F)F)n3)[C@H](c3ccc(F)cc3)C2)ccc1F [16-2, (R)-2-(4-(4-fluoro-3-(methylsulfonyl)phenyl)-2-(4-fluorophenyl)piperazin-1-yl)-4-(trifluoromethyl)pyrimidine-5-carboxylic acid] |  |  |  | > 20 µM | EC50 [3]: > 20 µM
CS(=O)(=O)c1cccc(N2CCN(C[C@@H]3C[C@@H]4[C@H](C3)C4(F)F)[C@H](c3ccccc3)C2)c1 [48-67, (R)-1-(((1R,3s,5S)-6,6-difluorobicyclo[3.1.0]hexan-3-yl)methyl)-4-(3-(methylsulfonyl)phenyl)-2-phenylpiperazine] | 7547 (30) % | 7.55 µM |  |  | Cell LXRβ efficacy [3, 4]: 47%; EC50 [3, 5]: 2.4 µM
CC(C)[C@@H]1CN(c2ccc(F)c(S(C)(=O)=O)c2)CCN1c1ncc(Cl)c(C2CC2)n1 [Cpd No 22-1, (R)-5-chloro-4-cyclopropyl-2-(4-(4-fluoro-3-(methylsulfonyl)phenyl)-2-isopropylpiperazin-1-yl)pyrimidine] | 1482 (31) % | 1.48 µM |  |  | Cell LXRβ efficacy [3]: 139 (14) %; EC50 [3]: 0.139 µM
